{
  "source": "patent US20140243401A1",
  "about": "“METHODS OF SCREENING COMPOUNDS THAT ARE CYTOTOXIC TO TUMOR CELLS AND METHODS OF TREATING TUMOR CELLS USING SUCH COMPOUND” (The Johns Hopkins University, priority 2010, published 2014)",
  "key": {"[1]": {"test_system": "MCF7 human breast cancer cells", "assay": "XTT cytotoxicity assay, MCF7", "type": "cell-based", "method": "(§1) Cytotoxicity can be easily measured using XTT assays, which provide an indication of mitochondrial activity. The XTT assay is a non-radioactive alternative for the [^51Cr] release cytotoxicity assay. XTT is a tetrazolium salt that is reduced to a formazan dye only by metabolically active, viable cells. The reduction of XTT is measured spectrophotometrically as OD490-OD650. Thus, cells that are actively metabolizing will form reaction product when subjected to XTT measurement.\n(§2) For this experiment, cells were cultured under standard culture conditions. MCF7 human breast cancer cells were cultured in DMEM containing 5 mM glucose medium with 10% fetal calf serum, 0.01 mg/ml insulin and 1% penicillin/streptomycin. To measure the cytotoxicity of specific compounds against cancer cells, 9×10^3 MCF7 cells were plated per well in 96-well plates. Following overnight culture, the compounds, dissolved in DMSO, were added to the wells in 1 μl volume at specified concentrations. Vehicle controls were run for each experiment. Each condition was run in triplicate. After 24 to 72 h of incubation, cells were incubated for 4 hours with the XTT reagent as per manufacturer's instructions (Cell Proliferation Kit II (XTT) Roche Diagnostics, New Jersey). Plates were read at OD490 on a PerkinElmer Victor 1420. Three wells containing the XTT reagent without cells served as the plate blank. XTT data were reported as OD490.\nMCF7 human breast cancer cells were cultured in DMEM containing 1 mM or 5 mM glucose in the medium with 10% fetal calf serum, 0.01 mg/ml insulin and 1% penicillin/streptomycin. The cells were grown in two oxygen conditions, normoxia (21% 02) or hypoxia (1% 02). To measure the cytotoxicity of specific compounds against cancer cells, 9×10^3 MCF7 cells were plated per well in 96-well plates. Following overnight culture, the compounds, dissolved in DMSO, were added to the wells in 1 μl volume at specified concentrations. After 24 to 72 h of incubation, cells were incubated for 4 h with the XTT reagent as per manufacturer's instructions (Cell Proliferation Kit II (XTT) Roche Diagnostics, New Jersey). Plates were read at OD490 on a PerkinElmer Victor 1420. Three wells containing the XTT reagent without cells served as the plate blank. XTT data were reported as OD490Vehicle controls were run for each experiment. Each condition was run in triplicate."}, "[2]": {"test_system": "human cancer cell lines", "assay": "XTT cytotoxicity assay, all human cancer cell lines tested", "type": "cell-based", "method": "as §1\nas §2, with “XTT data were reported as OD490.” left out"}, "[3]": {"test_system": "HCT116 human colon cancer xenograft", "assay": "tumor xenograft size, HCT116", "type": "in vivo, Athymic Nude mice", "conditions": "50 mg/kg", "method": "Xenograft studies were performed using various mmFAS inhibitors disclosed herein. Human cancer xenograft studies are known in the art. (See Pizer et al., Cancer Res. 56:1189-1193, 1996; Pizer et al., Cancer Res. 60: 213-218, 2000; Testa et al., Oncogene 24: 7455-7464, 2005).\nIn particular, C31 mouse efficacy studies were conducted in order to evaluate anti-neoplastic activity of C31 in vivo. Athymic Nude mice were implanted with HCT116 human colon, SKOV3 human ovarian or OVCAR3 human ovarian cancer cell lines and were treated when the grown tumor xenografts reached at least 150 to 200 mm^3.^1 ^1 Compounds were solubilized in TEP (80% polyethylene glycol (PEG) 400, 10% ethanol, 10% tween-80) in a volume of 50 μL."}, "[4]": {"test_system": "mitochondrial FAS", "assay": "14C-malonate incorporation into mitochondrial fatty acids, mitochondria isolated from rat liver", "type": "biochemical", "conditions": "FIG. 3", "method": "Mammalian mitochondrial FAS activity may be determined in a variety of ways. For example, [14C]malonate may be added to isolated mitochondria, fatty acids are extracted, and then radioactivity is tested. (See Zhang et al., J. Bio. Chem. 278(41): 40067-40074, 2003; Mikolajczyk, J. and Brody, S., Eur. J. Biochem. 187: 431-437, 1990). The mitochondria are purified using methods known in the art. (See Qiagen's Qproteome Mitochondria Isolation Kit; Methods in Enzymology, Vol. 10, Chapter 11, 1967). To test the inhibition of mmFAS activity, a test compound is added to the reaction mixture. Therefore, a test compound may be screened according the methods described herein as follows: (i) isolating mitochondria; (ii) incubating mitochondria with [14C]malonate with and without a test compound; and (iii) determining the quantity of lipids and/or fatty acids produced. By comparing the amount of product in the presence of the test compound to the amount in its absence, the degree of inhibition can be determined.\nMitochondria from MCF7 cells were prepared following manufacturer's protocol (Mitochondria Isolation Kit, Sigma, Saint Louis, Mo.). Rat liver mitochondria were isolated by homogenization with a tissue homogenizer in H-medium (220 mM mannitol, 70 mM sucrose, 2 mM HEPES, and 0.5 g/L of fatty acid free bovine serum albumin, pH 7.4). The homogenate was centrifuged at 1100 g for 3 min and washed twice with H-medium. The supernatants were pooled and centrifuged at 6800 g for 15 min. The pellet was then rinsed again and centrifuged at 3000 g for 3 min. The mitochondria supernatants were saved. The sediments were resuspended in H-medium and centrifuged at 3000 g for 3 min. The mitochondria supernatants were combined and centrifuged at 20,000 g for 15 min. The resulting mitochondria pellet were rinsed and centrifuged again at 20,000 g for 20 min.\nIsolated mitochondria (100-200 μg) were mixed with 50 mM TES-KOH (pH 7.2), 10 mM MgCl2, 0.3 M sorbitol, 0.1% BSA, 1 mM each of ATP, ADP, NADH, NADPH, CoA, DTT and 1 μCi of [2-^14C]malonic acid (50 mCi/mmol) in a total volume of 200 μl. The reaction was performed for 30 min at room temperature. C31, Riv7d or vehicle were added at the beginning of this reaction. At the end of 30 minutes, the mitochondria pellet was separated from supernatant by centrifugation at 14000 rpm for 5 min. After washing with 500 μl of 50 mM TES-KOH (pH 7.2) and 0.3 M sorbitol, the mitochondria were incubated in 200 μl of H2O and 20 μl of 10 M KOH for 15 min at 65° C. Then the samples were added with 40 μl of 5 M H2SO4 and 20 μl of 1 mM palmitic acid (in 1 M acetic acid in isopropanol). The ^14C labeled fatty acids were twice extracted with hexane and sent to scintillation counting after drying."}},
  "note": "Several values for one entry are separate records, joined by “and”; a condition that tells them apart may be missing. Equal values may be shown once.",
  "data": [
    {"smiles": "CCCCCCCCC1(C)SC(=O)C=C1OCC(=O)Nc1ccc(Cl)cc1", "note": "(centres unmarked) [Compound C31]", "values": [
      {"measurement": "cytotoxicity (XTT)", "setting": "[1]; MCF7, 1 mM or 5 mM glucose, 1% or 21% O2, FIG. 9", "result": "increases if the cells are hypoglycemic and even more if the cells are hypoxic"},
      {"measurement": "cytotoxicity / cell viability (XTT)", "setting": "[1]; MCF7, standard culture, FIG. 4 A, B", "result": "concentration-dependent cytotoxicity"},
      {"measurement": "CC50", "setting": "[2]; Homo sapiens, XTT, range over all cancer cell lines, read-out: LC50, human cancer cell lines", "result": "3.3 µg/mL to 16.7 µg/mL and 8.25 µM to 41.8 µM"},
      {"measurement": "potential therapeutic index in vitro", "setting": "[2]; hepatocyte LC50 vs cancer cell line LC50", "result": "34 to 170", "unit": "fold"},
      {"measurement": "Average Tumor Size Endpoint (% Change)", "setting": "[3]; Study 72406, HCT-116, IP b.i.d. 8 days", "result": "−59", "unit": "% Change"},
      {"measurement": "Average Tumor Size Endpoint (% Change)", "setting": "[3]; Study 101707, HCT-116, oral b.i.d. 16 days", "result": "+256 % Change"},
      {"measurement": "IC50, inhibition of mitochondrial FAS (14C-malonate incorporation)", "setting": "[4]; isolated mitochondria", "result": "less than 4 μg per mL"},
      {"measurement": "effect on 14C-malonate incorporation into mitochondrial fatty acids", "setting": "[4]; mitochondria isolated from rat liver", "result": "dose-dependent inhibitory effect"}
    ]}
  ]
}
